Source: US9145399B2, “Substituted bicyclic triazole derivatives as gamma secretase modulators” (Janssen Pharmaceuticals, Inc., priority 2010, dated 2015)

Columns and labels:
[1] = test system: Aβ42; assay: Screening for γ-secretase-modulating activity in SKNBE2 cells carrying APP 695 wild type: Aβ42 in cell supernatant (Alphalisa); format: cell-based; settings: Homo sapiens, SKNBE2, SKNBE2 cells carrying APP 695 wild type, overnight incubation
Description: (§1) Pharmacology A) Screening of the Compounds of the Invention for γ-Secretase-Modulating Activity
(§2) Screening was carried out using SKNBE2 cells carrying the APP 695—wild type, grown in Dulbecco's Modified Eagle's Medium/Nutrient mixture F-12 (DMEM/NUT-mix F-12) (HAM) provided by Invitrogen (cat no. 10371-029) containing 5% Serum/Fe supplemented with 1% non-essential amino acids, 1-glutamine 2 mM, Hepes 15 mM, penicillin 50 U/ml (units/ml) en streptomycin 50 μg/ml. Cells were grown to near confluency.
(§3) The screening was performed using a modification of the assay as described in Citron et al (1997) Nature Medicine 3: 67. Briefly, cells were plated in a 384-well plate at 10^4 cells/well in Ultraculture (Lonza, BE12-725F) supplemented with 1% glutamine (Invitrogen, 25030-024), 1% non-essential amino acid (NEAA), penicillin 50 U/ml en streptomycin 50 μg/ml in the presence of test compound at different test concentrations. The cell/compound mixture was incubated overnight at 37° C., 5% CO2. The next day the media were assayed by two sandwich immuno-assays, for Aβ42 and Aβtotal.
(§4) Aβtotal and Aβ42 concentrations were quantified in the cell supernatant using the Aphalisa technology (Perkin Elmer). Alphalisa is a sandwich assay using biotinylated antibody attached to streptavidin coated donorbeads and antibody conjugated to acceptor beads. In the presence of antigen, the beads come into close proximity. The excitation of the donor beads provokes the release of singlet oxygen molecules that trigger a cascade of energy transfer in the acceptor beads, resulting in light emission. To quantify the amount of Aβ42 in the cell supernatant, monoclonal antibody specific to the C-terminus of Aβ42 (JRF/cAβ42/26) was coupled to the receptor beads and biotinylated antibody specific to the N-terminus of Aβ (JRF/AβN/25) was used to react with the donor beads. T quantify the amount of Aβtotal in the cell supernatant, monoclonal antibody specific to the N-terminus of Aβ (JRF/AβN/25) was coupled to the receptor beads and biotinylated antibody specific to the mid region of Aβ (biotinylated 4G8) was used to react with the donor beads.
(§5) To obtain the values reported in Table 3, the data are calculated as percentage of the maximum amount of amyloid Beta 42 measured in the absence of the test compound. The sigmoidal dose response curves were analyzed using non-linear regression analysis with percentage of the control plotted against the log concentration of the compound. A 4-parameter equation was used to determine the IC50.

[2] = test system: Aβtotal; assay: Screening for γ-secretase-modulating activity in SKNBE2 cells carrying APP 695 wild type: Aβtotal in cell supernatant (Alphalisa); format: cell-based; settings: Homo sapiens, overnight incubation
Description: as §1, §2, §3, §4, §5

Compound	IC50 [1]	IC50 [2]	melting point
Cc1cc(-c2ccc(Nc3nc4c(-c5ccccc5Cl)cccn4n3)cc2F)ccn1 [Compound 25, 8-(2-chlorophenyl)-N-[3-fluoro-4-(2-methyl-4-pyridinyl)phenyl]-[1,2,4]triazolo[1,5-a]pyridin-2-amine]	15 nM	> 10000 nM	251 °C
Cc1cc(-c2ccc(Nc3nc4c(-c5ccccc5Cl)cccn4n3)cc2)cc(C)n1 [Compound 26, 8-(2-chlorophenyl)-N-[4-(2,6-dimethyl-4-pyridinyl)phenyl]-[1,2,4]triazolo[1,5-a]pyridin-2-amine]	43 nM	> 10000 nM	228.1 °C
COc1cc(Nc2nc3n(n2)CCCC3c2cccc(F)c2)ccc1-n1cnc(C)c1 (stereo not drawn) [Compound 30, 8-(3-fluorophenyl)-5,6,7,8-tetrahydro-N-[3-methoxy-4-(4-methyl-1H-imidazol-1-yl)phenyl]-[1,2,4]triazolo[1,5-a]pyridin-2-amine]	49 nM	> 10000 nM	200.6 °C
COc1cc(Nc2nc3n(n2)CCCC3c2ccc(F)cc2C)ccc1-n1cnc(C)c1 (stereo not drawn) [Compound 32, 8-(4-fluoro-2-methylphenyl)-5,6,7,8-tetrahydro-N-[3-methoxy-4-(4-methyl-1H-imidazol-1-yl)phenyl]-[1,2,4]triazolo[1,5-a]pyridin-2-amine]	12 nM	9330 nM	249 °C
COc1cc(Nc2nc3n(n2)CCCC3c2cccc(C(F)(F)F)c2)ccc1-n1cnc(C)c1 (stereo not drawn) [Compound 34, 5,6,7,8-tetrahydro-N-[3-methoxy-4-(4-methyl-1H-imidazol-1-yl)phenyl]-8-[3-(trifluoromethyl)phenyl]-[1,2,4]triazolo[1,5-a]pyridin-2-amine]	10 nM	7590 nM	224.9 °C
COc1cc(Nc2nc3n(n2)CCCC3c2ccccc2C(F)(F)F)ccc1-c1ocnc1C (stereo not drawn) [Compound 38, 5,6,7,8-tetrahydro-N-[3-methoxy-4-(4-methyl-5-oxazolyl)phenyl]-8-[2-(trifluoromethyl)phenyl]-[1,2,4]triazolo[1,5-a]pyridin-2-amine]	29 nM	> 10000 nM	258.5 °C
COc1cc(Nc2nc3n(n2)CCCC3c2cccc(F)c2)ccc1-c1ccnc(C)c1 (stereo not drawn) [Compound 44, 8-(3-fluorophenyl)-5,6,7,8-tetrahydro-N-[3-methoxy-4-(2-methyl-4-pyridinyl)phenyl]-[1,2,4]triazolo[1,5-a]pyridin-2-amine]	39 nM	> 10000 nM	170.1 °C
COc1cc(Nc2nc3n(n2)CCOC3c2ccccc2C(F)(F)F)ccc1-n1cnc(C)c1 (stereo not drawn) [Compound 47, 5,6-dihydro-N-[3-methoxy-4-(4-methyl-1H-imidazol-1-yl)phenyl]-8-[2-(trifluoromethyl)phenyl]-8H-[1,2,4]triazolo[5,1-c][1,4]oxazin-2-amine]	55 nM	> 10000 nM	202.9 °C
COc1cc(Nc2nc3n(n2)CCCC3c2cc(C(F)(F)F)ccc2F)ccc1-n1cnc(C)c1 (stereo not drawn) [Compound 48, 8-[2-fluoro-5-(trifluoromethyl)phenyl]-5,6,7,8-tetrahydro-N-[3-methoxy-4-(4-methyl-1H-imidazol-1-yl)phenyl]-[1,2,4]triazolo[1,5-a]pyridin-2-amine]	30 nM	5750 nM	204.4 °C
COc1cc(Nc2nc3n(n2)CCCC3c2ccccc2F)ccc1-n1cnc(C)c1 (stereo not drawn) [Compound 49, 8-(2-fluorophenyl)-5,6,7,8-tetrahydro-N-[3-methoxy-4-(4-methyl-1H-imidazol-1-yl)phenyl]-[1,2,4]triazolo[1,5-a]pyridin-2-amine]	29 nM	> 10000 nM	188.3 °C
COc1cc(Nc2nc3n(n2)CCCC3c2ccc(C(F)(F)F)cc2)ccc1-n1cnc(C)c1 (stereo not drawn) [Compound 50, 5,6,7,8-tetrahydro-N-[3-methoxy-4-(4-methyl-1H-imidazol-1-yl)phenyl]-8-[4-(trifluoromethyl)phenyl][1,2,4]triazolo[1,5-a]pyridin-2-amine]	19 nM	8130 nM	229.7 °C
FC(F)(F)c1ccccc1C1CCCn2nc(Nc3ccc(-c4ccncc4)cc3)nc21 (stereo not drawn) [Compound 75, 5,6,7,8-tetrahydro-N-[4-(4-pyridinyl)phenyl]-8-[2-(trifluoromethyl)phenyl]-[1,2,4]triazolo[1,5-a]pyridin-2-amine]	257 nM	> 10000 nM	240.4 °C
Cc1cc(-c2ccc(Nc3nc4n(n3)CCOC4c3ccccc3Cl)cc2)ccn1 (stereo not drawn) [Compound 76, 8-(2-chlorophenyl)-5,6-dihydro-N-[4-(2-methyl-4-pyridinyl)phenyl]-8H-[1,2,4]triazolo[5,1-c][1,4]oxazin-2-amine]	46 nM	> 10000 nM	216.1 °C
COc1cc(Nc2nc3n(n2)CCCC3c2ccccc2Cl)ccc1-c1ccnc(C)c1 (stereo not drawn) [Compound 77]	40 nM	> 10000 nM	167.9 °C
COc1cc(Nc2nc3n(n2)CCOC3c2ccc(F)cc2C)ccc1-c1ccnc(C)c1 (stereo not drawn) [Compound 92, 8-(4-fluoro-2-methylphenyl)-5,6-dihydro-N-[3-methoxy-4-(2-methyl-4-pyridinyl)phenyl]-8H-[1,2,4]triazolo[5,1-c][1,4]oxazin-2-amine]	21 nM	> 10000 nM	201.9 °C
COc1cc(Nc2nc3n(n2)CCCC3c2ccccc2F)ccc1-c1ccnc(C)c1 (stereo not drawn) [Compound 99, 8-(2-fluorophenyl)-5,6,7,8-tetrahydro-N-[3-methoxy-4-(2-methyl-4-pyridinyl)phenyl]-[1,2,4]triazolo[1,5-a]pyridin-2-amine]	50 nM	> 10000 nM	214.9 °C
COc1cc(Nc2nc3n(n2)CCOC3c2ccc(F)cc2F)ccc1-c1ccnc(C)c1 (stereo not drawn) [Compound 100, 8-(2,4-difluorophenyl)-5,6-dihydro-N-[3-methoxy-4-(2-methyl-4-pyridinyl)phenyl]-8H-[1,2,4]triazolo[5,1-c][1,4]oxazin-2-amine]	36 nM	> 10000 nM	217.2 °C
COc1cccc(C2CCCn3nc(Nc4ccc(-c5ccnc(C)c5)c(F)c4)nc32)c1 (stereo not drawn) [Compound 102, N-[3-fluoro-4-(2-methyl-4-pyridinyl)phenyl]-5,6,7,8-tetrahydro-8-(3-methoxyphenyl)-[1,2,4]triazolo[1,5-a]pyridin-2-amine]	29 nM	> 10000 nM	148.4 °C
COc1cccc(C2CCCn3nc(Nc4ccc(-c5ccnc(C)c5)cc4)nc32)c1 (stereo not drawn) [Compound 103, 5,6,7,8-tetrahydro-8-(3-methoxyphenyl)-N-[4-(2-methyl-4-pyridinyl)phenyl]-[1,2,4]triazolo[1,5-a]pyridin-2-amine]	59 nM	> 10000 nM	221.6 °C
COc1cc(C2CCCn3nc(Nc4ccc(-c5ccnc(C)c5)cc4)nc32)ccc1F (stereo not drawn) [Compound 106, 8-(4-fluoro-3-methoxyphenyl)-5,6,7,8-tetrahydro-N-[4-(2-methyl-4-pyridinyl)phenyl]-[1,2,4]triazolo[1,5-a]pyridin-2-amine]	40 nM	> 15000 nM	150.6 °C
COc1cc(C2CCCn3nc(Nc4ccc(-c5ccnc(C)c5)c(OC)c4)nc32)ccc1F (stereo not drawn) [Compound 107, 8-(4-fluoro-3-methoxyphenyl)-5,6,7,8-tetrahydro-N-[3-methoxy-4-(2-methyl-4-pyridinyl)phenyl]-[1,2,4]triazolo[1,5-a]pyridin-2-amine]	32 nM	> 15000 nM	147.4 °C
COc1cc(Nc2nc3n(n2)CCCC3c2c(F)cccc2Cl)ccc1-c1ccnc(C)c1 (stereo not drawn) [Compound 110, 8-(2-chloro-6-fluorophenyl)-5,6,7,8-tetrahydro-N-[3-methoxy-4-(2-methyl-4-pyridinyl)phenyl]-[1,2,4]triazolo[1,5-a]pyridin-2-amine]	50 nM	> 10000 nM	174 °C
Cc1cc(-c2ccc(Nc3nc4n(n3)CCCC4c3cc(C(F)(F)F)ccc3F)cc2)ccn1 (stereo not drawn) [Compound 114, 8-[2-fluoro-5-(trifluoromethyl)phenyl]-5,6,7,8-tetrahydro-N-[4-(2-methyl-4-pyridinyl)phenyl]-[1,2,4]triazolo[1,5-a]pyridin-2-amine]	41 nM	> 10000 nM	194.4 °C
